From US20190070165A1, “N-HYDROXYISOQUINOLINEDIONE INHIBITORS OF HBV REPLICATION” (Saint Louis University, priority 2016, published 2019)
Read-outs that look alike come from different tables or passages of the source.

What was measured:
HBV replication = HBV replication inhibition assay in HepDES19 cells (strand-preferential q-PCR); type: cell-based, Hepatitis B virus; conditions: for EC50: Hepatitis B virus; for HBV replication inhibition (qualitative): Table 3, qualitative screen at 20 μM; for HBV replication inhibition / activity: HepDES19 cells
Method: HBV replication assay. […] Cells were seeded into 6-well plates and incubated in DMEM/F12, 10% fetal bovine serum (FBS), 1% penicillin/streptomycin (P/S) with 1 μg/mL tetracycline. Tetracycline was withdrawn after 24 hours. The test compound was applied to duplicate wells 48 hours later in medium containing a final DMSO concentration of 1%, and medium containing the compound was refreshed daily for the following two days. Cells were harvested and non-encapsidated nucleic acids were digested with micrococcal nuclease (New England Biolabs). HBV DNA was purified from capsids using QIAamp Cador Pathogen Mini Kit (Qiagen) with proteinase K incubation overnight at 37° C. TaqMan PCR was performed for 40 cycles at an annealing temperature of 60° C.
Thirty-nine HID, HPD, flutimide, and related POH compounds (Structures shown in FIG. 3) were screened for their ability to inhibit HBV replication in HepDES19 cells. […] Inhibition was calculated as the amount of plus-polarity DNA relative to the DMSO treated controls.
Briefly, HepDES19 were seeded in 12-well plates at 2×10^5 cells per well in the absence of tetracycline. Test compound was applied to cells 48 hours after removal of tetracycline. […] HBV DNA was purified from capsids using a QIAamp pathogen minikit with proteinase K digestion extended to overnight at 37° C. TaqMan PCR was performed for 40 cycles with an annealing temperature of 60° C.

HBV RNaseH [1] = target: T1, HBV RNaseH (Hepatitis B virus genotype D subtype ayw, UniProt P03156); conditions: for Inhibition of HBV RNaseH, Oligonucleotide directed cleavage assay: Table 3, compounds at 100, 60 and 20 μM, compounds 1-91 and 138-140 previously reported (Cai et al., 2014); for HBV RNaseH: Table 1, qualitative inhibition in biochemical assay
T1 sequence (P03156 671-832): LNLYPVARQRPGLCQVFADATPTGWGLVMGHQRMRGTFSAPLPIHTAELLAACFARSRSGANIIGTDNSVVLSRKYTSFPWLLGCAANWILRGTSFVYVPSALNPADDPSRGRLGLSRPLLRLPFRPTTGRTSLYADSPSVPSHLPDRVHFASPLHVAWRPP
Method: RNaseH expression and purification. […] The enriched extracts were dialyzed into 50 mM HEPES pH 7.3, 300 mM NaCl, 20% glycerol, and 5 mM DTT and stored in liquid nitrogen.
Oligonucleotide-directed RNA cleavage assay. […] This mixture was incubated with test compounds in 50 mM Tris pH 8.0, 190 mM NaCl, 5 mM MgCl2, 3.5 mM DTT, 0.05% NP40, 6% glycerol, and 1% DMSO at 42° C. for 90 minutes. Cleavage products were resolved by denaturing polyacrylamide gel electrophoresis, detected by autoradiography, and quantified using ImageJ. Non-specific background values were determined from the incorrect oligonucleotide negative control lane and subtracted from all experimental values. IC50 values were then calculated with GraphPad Prism using three-parameter log(inhibitor) vs. response non-linear curve fitting with the curve minimum set to zero to reflect background subtraction.
The HBV RNaseH inhibition activity of the 16 previously untested compounds was examined using an oligonucleotide-directed cleavage assay. Compounds were incubated with the HBV RNaseH, a ^32P-labeled RNA substrate plus a complementary DNA oligonucleotide and compounds at 100, 60, and 20 μM and the amount of the RNA cleavage products was measured following resolution on an acrylamide gel.
Briefly, a ^32P-labeled RNA was combined with a DNA oligonucleotide and the RNA:DNA substrate was incubated in the presence of the RNaseH and test compounds in 50 mM tris pH 8.0, 190 mM NaCl, 5 mM MgCl2, 3.5 mM DTT, 0.05% NP40, 6% glycerol, and 1% DMSO at 42° C. for 90 minutes. The products were resolved by gel electrophoresis and detected by audioradioagraphy.

HSV-1 = HSV-1 replication inhibition assay in Vero cells; type: cell-based, herpes simplex virus 1; conditions: for log reduction at 5 µM: read-out: HSV-1 suppression (log10 at 5 μM), class symbol
Method: Thirty-seven compounds were counter-screened for efficacy against HSV-1 to evaluate specificity of the inhibitors and to help determine if the efficacy against HBV replication may be due to an unsuspected indirect effect on the cells. Vero cells infected with HSV-1 at an MOI of 0.1 were treated with 5 μM of compound for 24 hours. Inhibition was calculated as log 10 suppression of plaque forming units compared with DMSO vehicle control.
Vero cells were maintained DMEM supplemented with 3% newborn calf serum, 3% bovine growth serum, 2 mM L-glutamine, and P/S. Test compounds were applied to the cells in the presence of 0.05% DMSO. The herpes simplex virus 1 (HSV-1) strain used for screening was a de-identified clinical isolate from the Saint Louis University Hospital passaged once in culture.
Compounds and virus were diluted in phosphate buffered saline (PBS) containing 2% newborn calf serum and 2 mM L-glutamine so that the final concentration of compound was 5 μM. The cells were incubated at 37° C. for 1 hour with the virus containing inoculum, then the inoculum was removed and the wells were washed once in PBS. Compound diluted to 5 μM in supplemented DMEM was added and cells were incubated at 37° C. for an additional 23 hours. The plates were then microscopically inspected for cytopathic effect (CPE) or toxicity and then frozen at −80° C. Virus titers for wells with limited CPE compared to DMSO vehicle-treated controls were then determined by plaque assay on Vero cells. Each experiment was repeated at least once.

HBV RNaseH [2] = target: T1, HBV RNaseH; assay: Molecular beacon RNaseH assay; conditions: Table 3, 0 to 500 μM
human RNaseH1 = target: T2, human RNaseH1 (Homo sapiens, UniProt O60930); assay: Oligonucleotide-directed RNA cleavage assay, human RNaseH1; type: biochemical; conditions: for IC50: Table 1, quantitative values; for inhibition of huRNaseH1: compounds at 100, 60 and 20 μM
T2 construct: made in house; host or cells: E. coli
T2 sequence (O60930 1-286): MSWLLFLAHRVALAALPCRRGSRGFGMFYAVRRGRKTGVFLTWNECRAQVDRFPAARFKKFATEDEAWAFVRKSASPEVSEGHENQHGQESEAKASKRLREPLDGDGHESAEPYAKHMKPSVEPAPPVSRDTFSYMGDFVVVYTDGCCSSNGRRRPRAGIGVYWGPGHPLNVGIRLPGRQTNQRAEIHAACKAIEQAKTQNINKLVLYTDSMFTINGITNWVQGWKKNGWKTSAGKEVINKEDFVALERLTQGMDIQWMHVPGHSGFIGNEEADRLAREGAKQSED
Description: RNaseH expression and purification.
Oligonucleotide-directed RNA cleavage assay.

[3] = HepDES19, read-out: HBV replication inhibition (EC50, μm)
[4] = Human alphaherpesvirus 1, 24 h, 5 μM, Vero cells
[5] = HepDES19, Table 2, qualitative suppression of + and − DNA strands, read-out: EC50 (class symbols)
[6] = Human alphaherpesvirus 1, Vero, 24 h

Compound | Inhibition of HBV RNaseH, Oligonucleotide directed cleavage assay (HBV RNaseH [1]) | log reduction at 5 µM (HSV-1; [4]) | HBV replication inhibition (qualitative) (HBV replication) | other results
O=C(Nc1ccc(F)cc1)C1C(=O)N(O)C(=O)c2ccccc21 (stereo not shown) [Compound 91] | − (No inhibition detected at 100 μM) | < 1 | – | EC50 (HBV replication; [3]): 4.6 ± 1 µM; Inhibition of HBV RNaseH, Molecular Beacon cleavage assay (HBV RNaseH [2]): − (No inhibition detected at 500 μM); IC50 (human RNaseH1): 8.7 µM
O=C(O)c1nc(Cl)c2ccccc2c1O [Compound 132] | − (No inhibition detected at 100 μM) | – | − (No inhibition detected at 20 μM) | –
CC1=C(C#N)C(=O)NC(=O)C1Cc1ccc(-c2ccccc2)o1 (stereo not shown) [Compound 140] | − (No inhibition detected at 100 μM) | < 1 | − (No inhibition detected at 20 μM) | –
Cc1cc(C)n(O)c(=O)c1C#N [Compound 44] | − (No inhibition detected at 100 μM) | < 1 | − (No inhibition detected at 20 μM) | –
O=C1C=CC2C=CC=CC2N1O (stereo not shown) [Compound 43] | − (No inhibition detected at 100 μM) | < 1 | − (No inhibition detected at 20 μM) | –
Cc1cc(C2CCCCC2)n(O)c(=O)c1 [Compound 41, Ciclopirox, reference compound] | − (No inhibition detected at 100 μM) | – | − (No inhibition detected at 20 μM) | HSV-1 suppression (log10 at 5 μM) (HSV-1; 5 μM, 24 hours, Vero cells, MOI 0.1, plaque forming units vs DMSO): 5.0 log10
O=C1CCC(=O)N1O [Compound 139] | − (No inhibition detected at 100 μM) | – | − (No inhibition detected at 20 μM) | HBV replication inhibition / activity (HBV replication): inactive
Cc1ccc(CC2C(=O)N(O)C(=O)c3ccccc32)cc1 (stereo not shown) [Compound 80] | − (No inhibition detected at 100 μM) | < 1 | − (No inhibition detected at 20 μM) | EC50 (HBV replication; [5]): > 20 µM; IC50 (human RNaseH1): > 100 µM
O=C(NCc1ccccc1)C1C(=O)N(O)C(=O)c2ccccc21 (stereo not shown) [Compound 85] | − (No inhibition detected at 100 μM) | – | – | EC50 (HBV replication; [3]): 6.5 ± 1.5 µM; EC50 (HBV replication; Table 2, HepDES19 cells, read-out: EC50): 6.5 µM; HBV RNaseH (HBV RNaseH [1]): +/−; log reduction at 5 µM (HSV-1; [6]): < 1; Inhibition of HBV RNaseH, Molecular Beacon cleavage assay (HBV RNaseH [2]): − (No inhibition detected at 500 μM); IC50 (human RNaseH1): 3.9 µM
CCCNC(=O)C1C(=O)N(O)C(=O)c2ccccc21 (stereo not shown) [Compound 82] | − (No inhibition detected at 100 μM) | < 1 | − (No inhibition detected at 20 μM) | EC50 (HBV replication; [5]): > 20 µM; HBV RNaseH (HBV RNaseH [1]): +/−; Human RNaseH1 (human RNaseH1; Table 1, qualitative inhibition): +++ (detectable inhibition at 10 μM)
O=C(Nc1ccccc1)C1C(=O)N(O)C(=O)c2ccccc21 (stereo not shown) [Compound 84] | − (No inhibition detected at 100 μM) | < 1 | – | EC50 (HBV replication; [3]): 6.5 ± 4.5 µM; HBV RNaseH (HBV RNaseH [1]): +/−; Inhibition of HBV RNaseH, Molecular Beacon cleavage assay (HBV RNaseH [2]): − (No inhibition detected at 500 μM); IC50 (human RNaseH1): 3.7 µM
COc1ccc2c(c1)cc1n2CC(=O)N(O)C1=O [Compound 238] | − (No inhibition detected at 100 μM) | < 1 | − (No inhibition detected at 20 μM) | –
O=C1c2cccc3cccc(c23)C(=O)N1O [Compound 45] | − (No inhibition detected at 100 μM) | < 1 | − (No inhibition detected at 20 μM) | –
O=C1C(=O)N(O)C2CCCCC2N1O (stereo not shown) [Compound 217] | − (No inhibition detected at 100 μM) | – | − (No inhibition detected at 20 μM) | log reduction at 5 µM (HSV-1; [6]): < 1; inhibition of huRNaseH1 (human RNaseH1): detectably inhibited
O=C1Cn2c(cc3ccccc32)C(=O)N1O [Compound 236] | − (No inhibition detected at 100 μM) | < 1 | − (No inhibition detected at 20 μM) | –
CC1CC(=O)N(O)C(CC(C)CC(C)(C)C)C1 (stereo not shown) [Compound 191, Piroctone olamine, reference compound] | − (No inhibition detected at 100 μM) | – | − (No inhibition detected at 20 μM) | –
NN1C(=O)Cc2ccccc2C1=O [Compound 204] | − (No inhibition detected at 100 μM) | < 1 | − (No inhibition detected at 20 μM) | HBV replication inhibition / activity (HBV replication): inactive; inhibition of huRNaseH1 (human RNaseH1): detectably inhibited
CCOC(=O)C1=CC2C=CC=CC2N(O)C1=O (stereo not shown) [Compound 42] | − (No inhibition detected at 100 μM) | < 1 | − (No inhibition detected at 20 μM) | –
O=C1c2ccc3ccccc3c2C(=O)N1O [Compound 128] | − (No inhibition detected at 100 μM) | < 1 | – | –
O=C1Cn2c(cc3cc(O)ccc32)C(=O)N1O [Compound 240] | − (No inhibition detected at 100 μM) | < 1 | − (No inhibition detected at 20 μM) | inhibition of huRNaseH1 (human RNaseH1): detectably inhibited
Nc1cccc(O)n1 [Compound 206] | − (No inhibition detected at 100 μM) | < 1 | − (No inhibition detected at 20 μM) | inhibition of huRNaseH1 (human RNaseH1): detectably inhibited
Oc1nc2ccccc2nc1O [Compound 198, 2,3-dihydroxy-quinoxaline] | − (No inhibition detected at 100 μM) | < 1 | − (No inhibition detected at 20 μM) | –
O=C1Cn2c(cc3cc(F)ccc32)C(=O)N1O [Compound 241] | − (No inhibition detected at 100 μM) | < 1 | − (No inhibition detected at 20 μM) | –
O=C1Cn2c(cc3cc(Cl)ccc32)C(=O)N1O [Compound 237] | − (No inhibition detected at 100 μM) | < 1 | − (No inhibition detected at 20 μM) | –
O=C1Cn2c(cc3ccccc32)C(=O)N1 [Compound 239] | − (No inhibition detected at 100 μM) | < 1 | − (No inhibition detected at 20 μM) | –
